Our source for the GI50, inhibition and IC50 values is ChEMBL document CHEMBL4052685, “Design, synthesis and tumor cell growth inhibitory activity of 3-nitro-2H-cheromene derivatives as histone deacetylaes inhibitors” (Bioorg Med Chem, 2017).

pIC50: −log10 of the molar value.

One test has as its system K562. Put plainly: Antiproliferative activity against human K562 cells after 48 hrs by MTT assay. In kind it is functional.
The test system of another test is A549. Put plainly: Antiproliferative activity against human A549 cells after 48 hrs by MTT assay. In kind it is functional.
In the next test the test system is MCF7. The test is described as follows: Antiproliferative activity against human MCF7 cells after 48 hrs by MTT assay. In kind it is functional.
The subject of a further test is PC-3. Put plainly: Antiproliferative activity against human PC3 cells after 48 hrs by MTT assay. In kind it is functional.
In a further test the test system is HeLa. The test is described as follows: Antiproliferative activity against human HeLa cells after 48 hrs by MTT assay. It is filed as functional.
Test [1] concerns the target T1, Histone deacetylase 2 (Homo sapiens, UniProt Q92769). The following applies: at 10 µM.
Description: Inhibition of HDAC2 (unknown origin) at 10 uM using Ac-Leu-GlyLys(Ac)-AMC as substrate preincubated for 10 mins followed by substrate addition measured after 30 mins by fluorescence analysis
The target of the next test is Histone deacetylase 1 (Homo sapiens, UniProt Q13547). The test is described as follows: Inhibition of HDAC1 (unknown origin) using Ac-Leu-GlyLys(Ac)-AMC as substrate preincubated for 10 mins followed by substrate addition measured after 30 mins by fluorescence analysis.
Histone deacetylase 1, sequence (Q13547 whole entry): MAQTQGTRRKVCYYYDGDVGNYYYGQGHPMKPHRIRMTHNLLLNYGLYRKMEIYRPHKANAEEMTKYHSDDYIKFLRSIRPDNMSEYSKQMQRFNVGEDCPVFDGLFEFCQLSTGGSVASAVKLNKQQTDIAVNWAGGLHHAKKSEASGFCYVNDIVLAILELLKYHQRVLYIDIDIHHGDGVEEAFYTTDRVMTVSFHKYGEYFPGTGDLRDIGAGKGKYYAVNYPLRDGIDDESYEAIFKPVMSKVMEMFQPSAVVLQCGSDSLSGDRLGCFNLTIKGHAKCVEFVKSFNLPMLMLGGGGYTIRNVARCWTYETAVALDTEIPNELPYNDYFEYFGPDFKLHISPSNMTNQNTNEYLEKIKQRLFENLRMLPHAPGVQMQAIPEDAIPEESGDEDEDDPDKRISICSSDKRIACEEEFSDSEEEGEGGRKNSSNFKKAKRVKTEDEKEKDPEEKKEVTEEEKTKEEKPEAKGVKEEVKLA
For test [2], the target named is T1, Histone deacetylase 2. Put plainly: Inhibition of HDAC2 (unknown origin) using Ac-Leu-GlyLys(Ac)-AMC as substrate preincubated for 10 mins followed by substrate addition measured after 30 mins by fluorescence analysis.

T1 sequence (Q92769 whole entry): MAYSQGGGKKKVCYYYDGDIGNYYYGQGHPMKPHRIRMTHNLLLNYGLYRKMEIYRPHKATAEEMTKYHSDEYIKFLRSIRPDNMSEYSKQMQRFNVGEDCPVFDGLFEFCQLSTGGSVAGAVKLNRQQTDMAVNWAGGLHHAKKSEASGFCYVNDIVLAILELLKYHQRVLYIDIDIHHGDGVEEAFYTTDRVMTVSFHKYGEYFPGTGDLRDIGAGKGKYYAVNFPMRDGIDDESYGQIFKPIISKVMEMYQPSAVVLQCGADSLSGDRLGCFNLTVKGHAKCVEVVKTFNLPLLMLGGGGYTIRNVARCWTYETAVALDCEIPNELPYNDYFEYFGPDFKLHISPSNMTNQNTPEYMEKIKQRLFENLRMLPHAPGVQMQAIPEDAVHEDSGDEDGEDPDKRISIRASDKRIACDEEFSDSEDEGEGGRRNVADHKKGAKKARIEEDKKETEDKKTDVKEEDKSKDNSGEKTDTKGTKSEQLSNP

Regarding `CCOc1cc(NC(=O)CCCCC(=O)Nc2cc(-c3ccccc3)ccc2N)cc2c1OCC([N+](=O)[O-])=C2`, the GI50 was 5.27 µM in the test on K562 (Homo sapiens, K562, 48 h); 7.46 µM with A549 (Homo sapiens, A549, 48 h); 19.9 µM in the test on MCF7 (Homo sapiens, MCF7, 48 h); 14.6 µM in the test with PC-3 (Homo sapiens, PC-3, 48 h); above 20 µM with HeLa (Homo sapiens, HeLa, 48 h). Also, the inhibition on Histone deacetylase 2 [1] stood at 59%.
For the compound `CCOc1cc(NC(=O)CCCCC(=O)Nc2ccccc2N)cc2c1OCC([N+](=O)[O-])=C2`, the GI50 with K562 (Homo sapiens, K562, 48 h) was found to be 3.68 µM; in the test with A549 (Homo sapiens, A549, 48 h) it was 9.63 µM; with MCF7 (Homo sapiens, MCF7, 48 h), 17.3 µM; in the test on PC-3 (Homo sapiens, PC-3, 48 h), 18.9 µM; with HeLa (Homo sapiens, HeLa, 48 h) it was 13.1 µM. On Histone deacetylase 2 [1], the inhibition amounted to 91%.
In the case of `CCOc1cc(NC(=O)CCCCCCC(=O)Nc2cc(-c3ccccc3)ccc2N)cc2c1OCC([N+](=O)[O-])=C2`, the concentration for 50% growth inhibition (GI50) in the test with K562 (Homo sapiens, K562, 48 h) amounted to 2 µM; in the test on A549 (Homo sapiens, A549, 48 h) it was 5.4 µM; in the test on MCF7 (Homo sapiens, MCF7, 48 h), 9.37 µM; with PC-3 (Homo sapiens, PC-3, 48 h), 10.7 µM; with HeLa (Homo sapiens, HeLa, 48 h), 16.2 µM. In addition, the pIC50 is 6.75 against Histone deacetylase 1 and 6.08 on Histone deacetylase 2 [2]. The compound further had an inhibition against Histone deacetylase 2 [1] of 72%.
For `Nc1ccccc1NC(=O)c1ccc(CNC(=O)OCc2cccnc2)cc1` [ENTINOSTAT], the GI50 was found to be 9.32 µM in the test on K562 (Homo sapiens, K562, 48 h); 18.4 µM in the test with A549 (Homo sapiens, A549, 48 h); 19.3 µM with MCF7 (Homo sapiens, MCF7, 48 h); 19.1 µM in the test with PC-3 (Homo sapiens, PC-3, 48 h); 19.2 µM in the test on HeLa (Homo sapiens, HeLa, 48 h). The compound also registered an inhibition against Histone deacetylase 2 [1] of 98%.
Regarding `CCOc1cc(NC(=O)CCCCCC(=O)Nc2cc(-c3ccccc3)ccc2N)cc2c1OCC([N+](=O)[O-])=C2`, the GI50 was found to be 3.21 µM with K562 (Homo sapiens, K562, 48 h); 4.86 µM with A549 (Homo sapiens, A549, 48 h); 7.03 µM in the test with MCF7 (Homo sapiens, MCF7, 48 h); 7.08 µM in the test with PC-3 (Homo sapiens, PC-3, 48 h); 19.8 µM in the test on HeLa (Homo sapiens, HeLa, 48 h). Besides, the negative-log IC50 (pIC50) against Histone deacetylase 1 was 6.89; against Histone deacetylase 2 [2], 6.18. The inhibition against Histone deacetylase 2 [1] worked out at 81%.
With `CCOc1cc(NC(=O)CCCCCC(=O)NCCc2ccccc2)cc2c1OCC([N+](=O)[O-])=C2`, the GI50 in the test with K562 (Homo sapiens, K562, 48 h) amounted to 3.47 µM; with A549 (Homo sapiens, A549, 48 h), 5.32 µM; in the test on MCF7 (Homo sapiens, MCF7, 48 h), 6.12 µM; with PC-3 (Homo sapiens, PC-3, 48 h), 7.09 µM; in the test on HeLa (Homo sapiens, HeLa, 48 h), 6.08 µM. Further, the inhibition on Histone deacetylase 2 [1] amounted to 0%.
`CCOc1cc(NC(=O)CCCCNC(=O)[C@H](N)Cc2ccccc2)cc2c1OCC([N+](=O)[O-])=C2`: the concentration for 50% growth inhibition (GI50) in the test on K562 (Homo sapiens, K562, 48 h) is 3.56 µM; in the test with A549 (Homo sapiens, A549, 48 h), 5.95 µM; with MCF7 (Homo sapiens, MCF7, 48 h), 8.72 µM; with PC-3 (Homo sapiens, PC-3, 48 h) it was 11.2 µM; in the test with HeLa (Homo sapiens, HeLa, 48 h), above 20 µM. The negative logarithm of the IC50 (pIC50) was 6.13 against Histone deacetylase 1 and 5.54 against Histone deacetylase 2 [2]. The inhibition against Histone deacetylase 2 [1] is 90%.
`CCOc1cc(NC(=O)CCCCCCC(=O)Nc2ccccc2N)cc2c1OCC([N+](=O)[O-])=C2`: the concentration for 50% growth inhibition (GI50) is 3.36 µM in the test with K562 (Homo sapiens, K562, 48 h); 11.7 µM in the test on A549 (Homo sapiens, A549, 48 h); 13.5 µM with MCF7 (Homo sapiens, MCF7, 48 h); 8.63 µM with PC-3 (Homo sapiens, PC-3, 48 h); above 20 µM in the test with HeLa (Homo sapiens, HeLa, 48 h). In addition, the pIC50 on Histone deacetylase 1 is 6.63; against Histone deacetylase 2 [2] it was 6.36. Also, the inhibition at Histone deacetylase 2 [1] is 93%.
On to `O=C(CCCCCCC(=O)Nc1ccccc1)NO` [VORINOSTAT], for which the GI50 with K562 turned out to be 3.66 µM; with A549, 19.4 µM; in the test on MCF7 it was 17.9 µM; in the test with PC-3 it was 18.8 µM; in the test with HeLa, 19.2 µM.
`CCOc1cc(NC(=O)CCCCCCC(=O)NCCc2ccccc2)cc2c1OCC([N+](=O)[O-])=C2`: the concentration for 50% growth inhibition (GI50) is 4.12 µM in the test with K562 (Homo sapiens, K562, 48 h); 18.2 µM with A549 (Homo sapiens, A549, 48 h); 19.1 µM with MCF7 (Homo sapiens, MCF7, 48 h); 10.9 µM in the test on PC-3 (Homo sapiens, PC-3, 48 h); above 20 µM in the test on HeLa (Homo sapiens, HeLa, 48 h). On Histone deacetylase 2 [1], the inhibition turned out to be 8%.
Regarding `CCOc1cc(NC(=O)CCCCCNC(=O)CCCc2ccccc2)cc2c1OCC([N+](=O)[O-])=C2`, the GI50 with K562 (Homo sapiens, K562, 48 h) came to 3.32 µM; with A549 (Homo sapiens, A549, 48 h), 5.23 µM; in the test with MCF7 (Homo sapiens, MCF7, 48 h), 5.96 µM; in the test with PC-3 (Homo sapiens, PC-3, 48 h), 7.17 µM; with HeLa (Homo sapiens, HeLa, 48 h) it was 6.74 µM. For the same compound, the inhibition on Histone deacetylase 2 [1] came to 8%.
In the case of `CCOc1cc(NC(=O)CCCCCCC(=O)Nc2cc(-c3ccc(C)s3)ccc2N)cc2c1OCC([N+](=O)[O-])=C2`, the concentration for 50% growth inhibition (GI50) is 3.11 µM with K562 (Homo sapiens, K562, 48 h); 5.83 µM in the test on A549 (Homo sapiens, A549, 48 h); 5.33 µM in the test on MCF7 (Homo sapiens, MCF7, 48 h); 6.36 µM with PC-3 (Homo sapiens, PC-3, 48 h); above 20 µM in the test with HeLa (Homo sapiens, HeLa, 48 h). This compound showed an inhibition against Histone deacetylase 2 [1] of 55%.
As to `CCOc1cc(NC(=O)CCCCCNC(=O)[C@H](N)Cc2ccccc2)cc2c1OCC([N+](=O)[O-])=C2`, the values for the negative logarithm of the IC50 (pIC50) at Histone deacetylase 1 and against Histone deacetylase 2 [2] were 6.35 and 5.89, respectively.
Take `CCOc1cc(NC(=O)CCCCC(=O)NCCc2ccccc2)cc2c1OCC([N+](=O)[O-])=C2`: the GI50 came to 2.9 µM in the test on K562 (Homo sapiens, K562, 48 h); 6.42 µM in the test on A549 (Homo sapiens, A549, 48 h); 2.82 µM in the test on MCF7 (Homo sapiens, MCF7, 48 h); 6.46 µM in the test on PC-3 (Homo sapiens, PC-3, 48 h); 9.33 µM with HeLa (Homo sapiens, HeLa, 48 h). This compound displayed an inhibition against Histone deacetylase 2 [1] of 3%.
In the case of `CCOc1cc(NC(=O)CCCCCNC(=O)Cc2ccccc2)cc2c1OCC([N+](=O)[O-])=C2`, the GI50 stood at 1.53 µM in the test with K562 (Homo sapiens, K562, 48 h); 4.8 µM in the test on A549 (Homo sapiens, A549, 48 h); 4.17 µM in the test with MCF7 (Homo sapiens, MCF7, 48 h); 13.2 µM in the test with PC-3 (Homo sapiens, PC-3, 48 h); 5.8 µM with HeLa (Homo sapiens, HeLa, 48 h). Also, the inhibition at Histone deacetylase 2 [1] was 0%.
With `CCOc1cc(NC(=O)CCCCCC(=O)Nc2cc(-c3ccc(C)s3)ccc2N)cc2c1OCC([N+](=O)[O-])=C2`, the GI50 in the test on K562 (Homo sapiens, K562, 48 h) is 2.92 µM; with A549 (Homo sapiens, A549, 48 h) it was 5.07 µM; in the test with MCF7 (Homo sapiens, MCF7, 48 h), above 20 µM; in the test with PC-3 (Homo sapiens, PC-3, 48 h) it was 11.4 µM; in the test with HeLa (Homo sapiens, HeLa, 48 h), above 20 µM. Moreover, the pIC50 is 6.44 against Histone deacetylase 1 and 5.75 on Histone deacetylase 2 [2]. The inhibition against Histone deacetylase 2 [1] was determined as 62%.
Regarding `CCOc1cc(NC(=O)CCCCC(=O)Nc2cc(-c3ccc(C)s3)ccc2N)cc2c1OCC([N+](=O)[O-])=C2`, the GI50 was 2.94 µM in the test on K562 (Homo sapiens, K562, 48 h); 13.8 µM in the test on A549 (Homo sapiens, A549, 48 h); 7.91 µM in the test on MCF7 (Homo sapiens, MCF7, 48 h); 13.5 µM in the test on PC-3 (Homo sapiens, PC-3, 48 h); 18.4 µM with HeLa (Homo sapiens, HeLa, 48 h). Moreover, the inhibition at Histone deacetylase 2 [1] is 32%.
On to `CCOc1cc(NC(=O)CCCCCC(=O)Nc2ccccc2N)cc2c1OCC([N+](=O)[O-])=C2`, for which the 50% growth inhibitory concentration (GI50) is 3.96 µM in the test with K562 (Homo sapiens, K562, 48 h); 12.2 µM in the test on A549 (Homo sapiens, A549, 48 h); 19.4 µM with MCF7 (Homo sapiens, MCF7, 48 h); above 20 µM in the test with PC-3 (Homo sapiens, PC-3, 48 h); 14.9 µM in the test with HeLa (Homo sapiens, HeLa, 48 h). Further, the results for the pIC50 against Histone deacetylase 1 and against Histone deacetylase 2 [2] were 6.54 and 6.12, respectively. The same compound registered an inhibition against Histone deacetylase 2 [1] of 96%.
